Assay [1] has as its system JRFL. Kind of assay: Viral infectivity (pseudovirion entry) assay, primary strain JRFL. It is filed as cell-based, HIV-1. The protocol: While HXB2 is a commonly used lab-adapted HIV-1 isolate, it is often more vulnerable to inhibition than primary clinical HIV-1 isolates. […] Bianchi 2005).
All studies were done using the HXB2 strain unless otherwise specified. Viral infectivity was measured essentially as previously described (Hamburger 2005) with several modifications. 8 μg/mL DEAE-Dextran was used as a fusion enhancer in all assays. Media was changed 22-26 h following infection. […] Fits were weighted by the absolute s.e.m. from quadruplicate points with the minimum allowable error set to 1%.

Assay [2] concerns HXB2 strain. Briefly: Single-cycle viral infectivity (viral entry) assay, HXB2 strain.
Method: All studies were done using the HXB2 strain unless otherwise specified. […] 8 μg/mL DEAE-Dextran was used as a fusion enhancer in all assays. Media was changed 22-26 h following infection. […] Fits were weighted by the absolute s.e.m. from quadruplicate points with the minimum allowable error set to 1%.
The mark [3] stands for this setting: read-out: IC50 (nM) (HXB2), HXB2 pseudovirion entry, Table 4.
Setting [4] is: JRFL pseudovirion entry, Table 4, read-out: IC50 (nM) (JRFL).
[5] abbreviates: read-out: IC50, inhibition of viral entry, HXB2.
Where [6] appears, read: read-out: IC50 (μM) (HXB2), HXB2 viral entry, Table 3.
Setting [7] is: JRFL, read-out: IC50 against primary isolate JRFL.

Like-named read-outs stand apart in the source and are kept apart here.

`Cc1ccc(-c2ccc3c(c2)C=C(C(=O)Nc2ccc(C[N+](C)(C)C4CCOCC4)cc2)CCC3)cc1` [TAK779, reference compound]: in assay [1] (CCR5 co-receptor inhibitor, JRFL entry assay), the 90% effect concentration (IC90) – broadly, the concentration needed for an effect of 90% – came to 100 nM.

On to GACDYPEWQWLCAAGK [PIE7-GK], for which the “inhibitory potency compared in words” value in assay [2] is “slightly enhanced potency”. Besides, the half-maximal inhibitory concentration (IC50) (in general, the concentration that inhibits the measured activity by half) was 389 nM in assay [2] (setting [3]) and 15800 nM in assay [1] (setting [4]).

With GACDYPEWQWLCAAGKK [PIE7-GKK], the concentration for half-maximal inhibition (IC50) was found to be 382 nM in assay [2] (setting [3]) and 19100 nM in assay [1] (setting [4]).

HACDYPEWQWLCELGK [PIE15]: the 50% inhibitory concentration (IC50) worked out at 66.7 nM in assay [2] (setting [3]) and 1450 nM in assay [1] (setting [4]).

In the case of HPCDYPEWQWLCELGK [PIE12], in assay [1] (setting [4]), the IC50 stood at 578 nM.

As for HPCDYPEWQWLCKLGK [PIE13], the IC50 in assay [2] (setting [3]) turned out to be 41.3 nM; in assay [1] (setting [4]) it was 1470 nM.

On to HPCDYPEWQWLCRLGK [PIE14], for which the half-inhibitory concentration (IC50) in assay [2] (setting [3]) turned out to be 33.1 nM; in assay [1] (setting [4]) it was 1050 nM.

Take KGACDYKEWQWLCAA [PIE8]: the half-maximal inhibitory concentration (IC50) in assay [2] (setting [5]) came to 1680 nM.

As to KGACDYPEWQWLCAA [PIE7], the “more potent than D10-p5” value in assay [2] (HXB2, compared with D10-p5) is listed as ~15 fold. The “inhibitory activity in combination with Fuzeon” value in assay [2] (against viral entry, with Fuzeon) is recorded as “at least additive”. The concentration for half-maximal inhibition (IC50) is 620 nM in assay [2] (setting [3]); 620 nM in assay [2] (setting [6]); 620 nM in assay [2] (setting [5]); 24000 nM in assay [1] (setting [4]); 24400 nM in assay [1] (setting [7]). Further, in assay [1] (JRFL compared with HXB2), the “reduction in potency against JRFL” value is listed as ~40 fold. The “improvement of potency on addition of TAK779” value in assay [1] (JRFL, addition of 100 nM TAK779) is reported as “more than 3 fold”.

As to KGACDYPEWQWLCAAGK [K-PIE7-GK], in assay [1] (setting [4]), the half-maximal inhibitory concentration (IC50) turned out to be 14800 nM.

In the case of KGACDYPEWRWLCAA [PIE2], the 50% inhibitory concentration (IC50) in assay [2] (setting [5]) was 1320 nM.

In the case of KGACDYPEWRWLCAAA [PIE2-AAA], the “inhibitory potency compared in words” value in assay [2] was “nearly indistinguishable from the potency of PIE2”. In addition, the concentration for half-maximal inhibition (IC50) in assay [2] (setting [6]) came to 1440 nM.

Consider KKGACDYPEWRWLCAA [2K-PIE2], for which the “less potent than PIE2” value in assay [2] (HXB2, compared with PIE2) is ~2 fold. In assay [2] (setting [6]), the concentration for half-maximal inhibition (IC50) worked out at 2570 nM.

“KKGACELLGWEWAWLCAA [D10-p5, reference compound]”: the “inhibition of infection of cells” value in assay [2] (infectivity assay) is “inhibit infection of cells”. Moreover, the half-inhibitory concentration (IC50) in assay [2] (setting [6]) stood at 9510 nM.

For the compound KKGACESPEWRWLCAA [2K-PIE1], the IC50 in assay [2] (setting [6]) was 2220 nM.

With PEG-(KGACDYPEWQWLCAA)2 [PEG-(PIE7)2], the “inhibitory potency compared in words” value in assay [2] is “comparable to Fuzeon”. Further, in assay [2] (HXB2, dimer vs monomer), the “improvement in IC50 over the corresponding monomer” value was ~325 fold. The half-maximal inhibitory concentration (IC50) in assay [2] (setting [3]) came to 1.9 nM; in assay [2] (setting [6]), 1.9 nM; in assay [2] (read-out: IC50 of dimeric inhibitors, HXB2), 1.9 nM; in assay [1] (setting [7]), 2300 nM.

Turning to “enfuvirtide [Fuzeon, reference compound]”, the results for the IC50 in assay [2] (setting [3]), in assay [2] (setting [6]) and in assay [1] (setting [4]) were 3.7 nM, 3.7 nM and 5 nM, respectively.

(Values after patent US10512665B2, “Methods and compositions related to inhibition of viral entry” (University of Utah Research Foundation, priority 2007, dated 2019).)
